Laboratory results taken from patent US9239334B2, “Fatty acid C16: 1N7-palmitoleate a lipokine and biomarker for metabolic status” (PRESIDENT AND FELLOWS OF HARVARD COLLEGE, priority 2008, dated 2016).

How the values were obtained:
SCD-1 protein = assay: Immunoblotting of Flag-tagged SCD-1 in hepatocytes; format: cell-based; conditions: CMV promoter construct
From the text: FIG. 3F presents data from the immunoblotting of Flag-tagged SCD-1 in hepatocytes treated with control, palmitate and palmitoleate. Anti-tubulin blot was used as loading control. The observations reported herein also raised the possibility that C16:1n7-palmitoleate might be the lipid species responsible, at least in part, for the metabolic activities linked to adipose tissue FABPs. […] Because palmitoleate is nearly ten-times more abundant in the plasma of FABP^−/− mice than is AA (FIG. 2C), it is most likely accounts for the suppression of SCD-1 under physiologically relevant conditions. The effects of palmitoleate on the levels of SCD-1 protein, which is known to have a very short half-life (Heinemann & Ozols, 68 Prostaglandins Leukot. Essent. Fatty Acids 123-33 (2003)), were also examined. […] Maeda et al., 2005.

[1] = test system: AKT phosphorylation in C2C12 myotubes; assay: Insulin-stimulated AKT phosphorylation in C2C12 myotubes; format: cell-based
Protocol: Values of bar plot were determined by phospho-AKT ELISA and corresponding immunoblotting results are shown as Insets.
The bottom panel is the corresponding immunoblotting of total and phosphorylated AKT in cells treated with pooled lipids.
To investigate whether plasma lipids also played a role in regulating muscle insulin action, differentiated C2C12 myotubes were treated with lipid extracts from each genotype and the insulin-stimulated AKT phosphorylation determined using an ELISA system.
The effect of C16:1n7-palmitoleate on muscle insulin signaling was explored by pre-treating C2C12 myotubes with either palmitate or palmitoleate overnight and then stimulating the cells with insulin. […] Conversely, C16:1n7-palmitoleate had little effect on its own in this in vitro setting (FIG. 3G). […]
(§1) Samples of 200 μl serum were collected using heparin-coated glass tubes and spun at 13,000 g in a microcentrifuge to separate the plasma. […] Tissue protein lysates was separated with SDS-PAGE gels and phosphorylated or total proteins were detected with the following antibodies: phospho AKT Serine 473, AKT, insulin receptor, phospho-tyrosine (Santa Cruz Biotech.); IRS-1 and IRS-2 (Upstate); phospho-GSK and GSK (Cell Signaling Tech.); phospho-insulin receptor from (Calbiocbem). […]

[2] = test system: insulin receptor signaling in muscle tissue; assay: Insulin signaling in muscle of lipid-infused mice (immunoblotting); format: in vivo; conditions: fatty acid:palmitoleate infusion 3.3 μl/min
From the text: FIGS. 7A-7G show data on the regulation of insulin signaling and glucose metabolism by palmitoleate. FIG. 7A is the basal and insulin-stimulated phosphorylation of insulin receptor (IR), insulin receptor substrate-1 (IRS-1) and -2 (IRS-2) and AKT in liver of mice infused with vehicle (Veh), TG:palmitoleate (C16:1n7) or TG:palmitate (C16). Representative blots are shown and quantifications on the right are averaged results of three mice in each treatment group. […] Representative blots are shown and quantifications on the right are averaged results of three mice in each treatment group.
The left panel presents the insulin-stimulated phosphorylation of insulin receptor and AKT in liver of mice infused with vehicle or palmitoleate. […] Mice were infused with vehicle or palmitoleate at 3.3 μl/min for six hrs, and insulin (1 U/Kg) was injected through the infusing tubing. Three minutes after insulin injection, tissues were collected and immunoblotting analyses were performed.
The present invention also provides for the regulation of insulin action by increased circulating palmitoleate. To study whether palmitoleate regulates systemic metabolic responses, lipid infusions were administered in conscious mice. Lipid infusion has been used widely to investigate the relationship between plasma FFAs and insulin resistance, but almost all studies using this protocol utilized preparations of natural lipid products containing a variety of fatty acids. Kim et al., 114 J. Clin. Invest. 823-27 (2004); Kim et al., 277 J. Biol. Chem. 32915-22 (2002); Yu et al., 277 J. Biol. Chem. 50230-36 (2002). […]
as §1

CCCCCC/C=C\CCCCCCCC(=O)O [palmitoleate, C16:1n7-palmitoleate]
Flag-tagged SCD-1 protein level (SCD-1 protein): significantly increased SCD-1 protein degradation | insulin-stimulated AKT phosphorylation ([1]; C2C12 myotubes pre-treated with fatty acid overnight, then insulin): little effect | palmitate-induced reduction in insulin-stimulated AKT phosphorylation ([1]; co-treated with both palmitate and palmitoleate): rescued | muscle insulin signaling (insulin receptor and AKT activation) [2]: enhanced
